Results: patent publication US20050209310A1, “Methods for modulating tumor growth and metastasis” (priority 2000, published 2005)

Columns and labels:
[1] = system: A2780 human ovarian carcinoma; assay: In vivo antitumor testing, A2780 human ovarian carcinoma xenograft
Protocol: (§1) The following protocols are provided to facilitate the practice of Examples I and II. • Drug administration: For administration to rodents, CA4P was dissolved in normal saline (0.9% NaCl). Paclitaxel was dissolved in a 50/50 mixture of ethanol and Cremophor® and stored at 4° C.; final dilution of paclitaxel was obtained immediately before drug administration with NaCl 0.9%. Fresh preparation of paclitaxel was employed to avoid precipitation. CPT-11 was dissolved in normal saline. • The volume of all compounds injected was 0.01 ml/g of mice, and 0.005 ml/g of rats. • In Vivo Antitumor Testing: The following tumor models were used: A2780 human ovarian carcinoma, the murine fibrosarcoma M5076 and M5076/ddp (resistant to cisplatin and carboplatin).
(§2) The human tumors were maintained in Balb/c nu/nu nude mice. M5076 and M5076ddp were maintained in C57BL/6 mice. Tumors were propagated as subcutaneous transplants in the appropriate mouse strain using tumor fragments obtained from donor mice.
(§3) The following tumors were passaged in the indicated host strain of mouse: murine M5076 fibrosarcoma (M5076) in C57B1/6 mice; human A2780 ovarian carcinomas in nude mice. Tumor passage occurred biweekly for murine tumors and approximately every two to three weeks for the human tumor line. With regard to efficacy testing, M5076 and M507 6ddp tumors were implanted in (C57B1/6×DBA/2)F1 hybrid mice, and human tumors were implanted in nude mice. All tumor implants for efficacy testing were subcutaneous (sc).
The required numbers of animals needed to detect a meaningful response were pooled at the start of the experiment and each was given a subcutaneous implant of a tumor fragment (˜50 mg) with a 13-gauge trocar. For treatment of early-stage tumors, the animals were again pooled before distribution to the various treatment and control groups. For treatment of animals with advanced-stage disease, tumors were allowed to grow to the predetermined size window (tumors outside the range were excluded) and animals were evenly distributed to various treatment and control groups. […]
Tumor response was determined by measurement of tumors with a caliper twice a week, until the tumors reach a predetermined “target” size of 1 gm. Tumor weights (mg) were estimated from the formula: Tumor weight=(length×width2)÷2 Antitumor activity was evaluated at the maximum tolerated dose (MTD) which is defined as the dose level immediately below which excessive toxicity (i.e. more than one death) occurred. […] When death occurs, the day of death was recorded. […]
To estimate tumor cell kill, the tumor volume doubling time was first calculated with the formula: TVDT=Median time (days) for control tumors to reach target size−Median time (days) for control tumors to reach half the target size and, Log cell kill=T−C÷(3.32×TVDT). […]

[2] = system: M5076 murine fibrosarcoma; assay: In vivo antitumor testing, sc M5076 murine fibrosarcoma; conditions: for complete response (disappearance of tumors): CA1P + carboplatin vs either agent alone (FIG. 11); for minimum effective dose required for synergistic enhancement: in combination with carboplatin (FIG. 10)
Protocol: as §1, §2, §3
The required numbers of animals needed to detect a meaningful response were pooled at the start of the experiment and each was given a subcutaneous implant of a tumor fragment (˜50 mg) with a 13-gauge trocar. For treatment of early-stage tumors, the animals were again pooled before distribution to the various treatment and control groups. For treatment of animals with advanced-stage disease, tumors were allowed to grow to the predetermined size window (tumors outside the range were excluded) and animals were evenly distributed to various treatment and control groups. Treatment of each animal was based on individual body weight. Treated animals were checked daily for treatment related toxicity/mortality. Each group of animals was weighed before the initiation of treatment (Wt1) and then again following the last treatment dose (Wt2). The difference in body weight (Wt2−Wt1) provides a measure of treatment-related toxicity.
Tumor response was determined by measurement of tumors with a caliper twice a week, until the tumors reach a predetermined “target” size of 1 gm. Tumor weights (mg) were estimated from the formula: Tumor weight=(length×width2)÷2 Antitumor activity was evaluated at the maximum tolerated dose (MTD) which is defined as the dose level immediately below which excessive toxicity (i.e. more than one death) occurred. […] When death occurs, the day of death was recorded.
Tumor response end-point was expressed in terms of tumor growth delay (T−C value), defined as the difference in time (days) required for the treated tumors (T) to reach a predetermined target size compared to those of the control group (C).
To estimate tumor cell kill, the tumor volume doubling time was first calculated with the formula: TVDT=Median time (days) for control tumors to reach target size−Median time (days) for control tumors to reach half the target size and, Log cell kill=T−C÷(3.32×TVDT).
Statistical evaluations of data were performed using Gehan's generalized Wilcoxon test.

[3] = system: M5076DDP murine fibrosarcoma; assay: In vivo antitumor testing, sc M5076DDP murine fibrosarcoma (resistant to cisplatin and carboplatin); design: species or system mice
Protocol: Fresh preparation of paclitaxel was employed to avoid precipitation.
M5076 and M5076ddp were maintained in C57BL/6 mice.
All tumor implants for efficacy testing were subcutaneous (sc).
The MTD was frequently equivalent to OD. When death occurs, the day of death was recorded.
M507 6DDP is a murine fibrosarcoma that has developed resistance to cisplatin and cross-resistance to carboplatin. The in vivo antitumor activity of CA4P or CA1P in combination with each of these platinum coordination compounds and CPT-11 were evaluated in M5076DDP tumor bearing mice.

[4] = system: sc A2780 human ovarian carcinoma; assay: Tumor perfusion, Evans blue dye uptake assay, mice; format: in vivo; conditions: iv, optimal dose, Evans blue injected an hour later (FIG. 5A)
Protocol: (§4) The effects of CA4P disodium salt on tumor perfusion were also studied using the Evans blue dye uptake assay. Mice or rats bearing sc A2780 human ovarian carcinoma were administered an iv dose of CA4P disodium salt. An hour later, Evans blue was injected iv. The amount of Evans blue accumulated in the tumor is proportional to the blood flow through the tumor.

[5] = system: ES2 human clear cell ovarian carcinoma; assay: Multi-drug resistant ES2 ovarian carcinoma model, tumor size and survival; format: in vivo, Fox Chase CB-17 SCID mice
Protocol: The multi-drug resistant ES2 human clear cell ovarian carcinoma was established by subcutaneous injection of cultured ES2 cells in Fox Chase CB-17 SCID mice. In one experiment, tumor-bearing mice were administered CA4P at a dose of 100 mg/kg (Group II), saline carrier only (Group I), an intraperitoneal (i.p.) injection of paclitaxel at a dose of 9 mg/kg, followed 30 minutes later by an infusion of carboplatin at a dose of 30 mg/kg […], or CA4P (100 mg/kg) followed 24 hours later by paclitaxel and carboplatin as in Group II (Group IV). Treatment with anticancer agents was performed once a week for 4 weeks (i.e. on Day 11, 19, 26, and 33). Tumors in each treatment group (n=2) were measured every 4 days by width and length. Tumor size (i.e. volume) was calculated according to the following formula: Length×Width^2×0.4.
In a second experiment, tumor-bearing mice were administered CA1P and/or carboplatin and paclitaxel in the same treatment regime as the first experiment.

[6] = system: sc A2780 human ovarian carcinoma; assay: Tumor perfusion, Evans blue dye uptake assay, rats; format: in vivo; conditions: iv, optimal dose, Evans blue injected an hour later (FIG. 5B)
Protocol: as §4

[7] = Hematological analysis of whole blood, Phase I trial of CA4P; format: in vivo, human
Protocol: Hematological analysis was performed on whole blood obtained from patients participating in a Phase I trial of CA4P (see Rustin et al., J. Clin. Oncol. (2003)). All patients had histologically confirmed tumors and were either not amenable to standard curative therapy or were refractory to conventional therapy. Blood work was obtained from each patient 1 minute prior to treatment, every 15 minutes for the first hour post-treatment, and at 1.5, 2, 4, 8, 12 and 24 hours following infusion with the first dose of CA4P (52-114 mg/m^2). Art-recognized hematology methods were used in the analysis.
All full or differential blood cell counts were performed using a hematology flow cytometer (Technicon H2, Bayer Inc.). Total white blood cell (“WBC” or leukocyte) and red blood cell (“RBC” or erythrocyte) counts were established using direct laser flow cytometry. A differential count for leukocyte cells of myeloid origin (e.g. eosinophils, neutrophils, monocytes) was obtained by fluorescent flow cytometry of cells stained for myeloperoxidase. Unstained cells were assumed to be lymphocytes and basophils. Lymphocyte counts were obtained by subtracting those cells that stained […] for a second, basophil-specific cell stain. Mean Corpuscular Volume (MCV) and Mean Corpuscular Haemoglobin (MCH) were also obtained by laser flow cytometry. The haematocrit (Hct) was calculated from the RBC count and the MCV. The coagulant status of each blood sample was determined by measuring fibrinogen content, prothrombin time, and kaolin partial thromboplastin time (when kaolin is used instead of micronised silica as the activator).
Cell counts were averaged from nineteen patients treated with a range of CA4P doses (52 to 114 mg/m^2). The results of the complete hematological analysis obtained at 4 and 24 hours post-treatment are presented in FIG. 18 as a percentage of the corresponding pretreatment value. […] The increase in white blood cells occurred despite a significant decrease in lymphocyte count (i.e. T and B-lymphocytes). […] The more than 2-fold increase in neutrophils and more than 20% decrease in lymphocytes was transient however, as white blood cell counts returned to normal levels within 24 hours of treatment.

[8] = system: N87 gastric cancer tumor xenografts; assay: Tumor perfusion studies of CA1P, N87 xenografts
[9] = system: N87 human gastric carcinoma; assay: Single agent antitumor activity, N87 xenograft model; conditions: in vivo
[10] = system: A2780 human ovarian tumor xenografts; assay: Tumor perfusion studies of CA1P, A2780 xenografts
[11] = 4 hours following treatment, CA4P 52 to 114 mg/m^2, nineteen patients

CCc1c2c(nc3ccc(OC(=O)N4CCC(N5CCCCC5)CC4)cc13)-c1cc3c(c(=O)n1C2)COC(=O)[C@]3(O)CC [CPT-11, CPT-11 (irinotecan), reference compound]
log cell kill (LCK) ([1]; CPT-11 at its MTD): 3.3 LCK

N.N.O=C([O-])C1(C(=O)[O-])CCC1.[Pt+2] [carboplatin, Carboplatin, reference compound]
complete response (disappearance of tumors) [2]: not observed | log cell kill (LCK) ([2]; carboplatin alone at MTD 90 mg/kg/inj, iv, Q4Dx3, large sc tumors (300 mg)): 1.4 LCK | tumor regression / shrinkage ([2]; carboplatin alone at MTD vs best CA4P + carboplatin combination (FIG. 3A)): no tumor regression | maximum tolerated dose (MTD) ([2]; carboplatin, iv, Q4Dx3): 90 mg/kg/inj

COc1ccc(/C=C\c2cc(OC)c(OC)c(OC)c2)cc1OP(=O)(O)O [CA4P, combretastatin A-4 phosphate]
log cell kill (LCK) ([3]; CA4P single agent, optimal dose 150 mg/kg/inj, iv, everyday x10 (Monday thru Friday), advanced (300 mg) tumors): 1.1 LCK | CA4P dose sufficient to enhance the antitumor activity of carboplatin ([3]; iv, q4dx3, doses without single agent activity, carboplatin at a range of dose levels (FIG. 7)): 12.5-25 mg/m^2 | log cell kill (LCK) ([1]; CA4P at 150 mg/kg, ip): 1.1 LCK | reduction of tumor blood flow [4]: 67% | single agent antitumor activity ([2]; CA4P administered Q4Dx3, separate experiment): no activity | maximum tolerated dose (MTD) as a single agent ([2]; CA4P single agent): > 250 mg/kg/inj | optimal CA4P dose required for therapeutic synergy ([2]; in combination with carboplatin (FIG. 3B)): < 90 mg/kg/inj | minimum effective dose required for synergistic enhancement [2]: 25 to 50 mg/kg | animals still alive at the conclusion of the experiment ([5]; first experiment (FIG. 14)): 30% | control of tumor growth ([5]; first experiment: CA4P 100 mg/kg, paclitaxel 9 mg/kg, carboplatin 30 mg/kg, once a week for 4 weeks (FIG. 13)): not significantly more effective than paclitaxel and carboplatin | reduction of tumor blood flow [6]: 87% | decrease in lymphocytes [7, 11]: more than 20% | increase in neutrophils [7, 11]: more than 2 fold | total white blood cell count ([7]; 4 hours following treatment, CA4P 52 to 114 mg/m^2, nineteen patients, vs pretreatment): highly significant increase | time for white blood cell counts to return to normal levels ([7]; after treatment with CA4P): ≤ 24 h

COc1cc(/C=C\c2ccc(OC)c(OP(=O)(O)O)c2OP(=O)(O)O)cc(OC)c1OC [CA1P, combretastatin A-1 diphosphate]
inhibition of tumor blood flow [8]: significantly inhibited tumor blood flow | log cell kill (LCK) ([1]; CA1P at MTD 9 mg/kg, ip, q1dx8): 2.1 LCK | maximum tolerated dose (MTD) ([1]; CA1P, ip, q1dx8): 9 mg/kg | single agent activity [9]: improved single agent activity | complete response (disappearance of tumors) [2]: not observed | minimum effective dose required for synergistic enhancement [2]: 4 to 8 mg/kg | control of tumor growth ([5]; second experiment: CA1P and/or carboplatin and paclitaxel, same regime (FIG. 15)): considerable anti-tumor growth delay | inhibition of tumor blood flow ([10]; A2780 xenografts in mice): significantly inhibited tumor blood flow | potency of blood flow inhibition relative to CA4P ([10]; daily single agent for ten days, human tumor xenografts in nude mice (N87, A2780; FIG. 9)): 5-10 times

N.N.[Cl][Pt][Cl] [cisplatin]
shrinkage of tumors following treatment ([3]; combination vs single agent cisplatin (FIG. 1)): did not | maximum tolerated dose (MTD) ([3]; injected every 4 days for 3 doses (Q4Dx3)): 7.5 mg/kg | log cell kill (LCK) ([3]; single agent cisplatin at MTD 7.5 mg/kg, iv, Q4Dx3): 0.8 LCK
